PubChem BioAssay (NCI)
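The concentration for 50% growth inhibition is given as GI50. TGI denotes the concentration required for complete inhibition of growth.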

How the values were obtained:
Assay in all cases: growth of human tumour cells (NCI), 384-well format
HT29 colon = system: HT29 colon
HL-60(TB) leukemia = system: HL-60(TB) leukemia
M14 melanoma = system: M14 melanoma
SK-MEL-2 melanoma = system: SK-MEL-2 melanoma
CCRF-CEM leukemia = system: CCRF-CEM leukemia
SN12C renal = system: SN12C renal
MDA-MB-231 breast = system: MDA-MB-231 breast
RXF 393 renal = system: RXF 393 renal
SK-MEL-5 melanoma = system: SK-MEL-5 melanoma
SK-OV-3 ovarian = system: SK-OV-3 ovarian
SF-295 CNS = system: SF-295 CNS
NCI-H460 NSCLC = system: NCI-H460 NSCLC
SK-MEL-28 melanoma = system: SK-MEL-28 melanoma
ACHN renal = system: ACHN renal
TK-10 renal = system: TK-10 renal
A549 NSCLC = system: A549 NSCLC
LOX IMVI melanoma = system: LOX IMVI melanoma
IGROV1 ovarian = system: IGROV1 ovarian
RPMI-8226 leukemia = system: RPMI-8226 leukemia
UACC-62 melanoma = system: UACC-62 melanoma
KM12 colon = system: KM12 colon
HCC-2998 colon = system: HCC-2998 colon
MCF7 breast = system: MCF7 breast
UO-31 renal = system: UO-31 renal
MDA-MB-435 melanoma = system: MDA-MB-435 melanoma
OVCAR-3 ovarian = system: OVCAR-3 ovarian
HCT-15 colon = system: HCT-15 colon
MOLT-4 leukemia = system: MOLT-4 leukemia
SF-539 CNS = system: SF-539 CNS
HOP-62 NSCLC = system: HOP-62 NSCLC
MALME-3M melanoma = system: MALME-3M melanoma
SNB-19 CNS = system: SNB-19 CNS
786-0 renal = system: 786-0 renal
SR leukemia = system: SR leukemia
SW-620 colon = system: SW-620 colon
BT-549 breast = system: BT-549 breast
UACC-257 melanoma = system: UACC-257 melanoma
MDA-MB-468 breast = system: MDA-MB-468 breast
HCT-116 colon = system: HCT-116 colon
NCI-H522 lung = system: NCI-H522 lung
NCI-H322M lung = system: NCI-H322M lung
COLO 205 colon = system: COLO 205 colon
U251 glioblastoma = system: U251 glioblastoma
NCI-H23 lung = system: NCI-H23 lung
SF-268 CNS = system: SF-268 CNS
K-562 leukemia = system: K-562 leukemia
OVCAR-8 ovarian = system: OVCAR-8 ovarian
PC-3 prostate = system: PC-3 prostate

SMILES: CN(C)C/C=C/C(=O)Nc1ccc(C(=O)N2CCC[C@@H](Nc3ncc(Cl)c(-c4c[nH]c5ccccc45)n3)C2)cc1
- GI50 (HT29 colon): 0.165 µM
- TGI (HT29 colon): 0.478 µM
- GI50 (HL-60(TB) leukemia): 0.0227 µM
- TGI (HL-60(TB) leukemia): 0.0374 µM
- GI50 (M14 melanoma): 0.106 µM
- TGI (M14 melanoma): 0.279 µM
- GI50 (SK-MEL-2 melanoma): 0.0199 µM
- TGI (SK-MEL-2 melanoma): 0.0488 µM
- GI50 (CCRF-CEM leukemia): 0.028 µM
- TGI (CCRF-CEM leukemia): 0.0745 µM
- GI50 (SN12C renal): 0.0468 µM
- TGI (SN12C renal): 0.222 µM
- GI50 (MDA-MB-231 breast): 0.0254 µM
- TGI (MDA-MB-231 breast): 0.0723 µM
- GI50 (RXF 393 renal): 0.0245 µM
- TGI (RXF 393 renal): 0.0777 µM
- GI50 (SK-MEL-5 melanoma): 0.0283 µM
- TGI (SK-MEL-5 melanoma): 0.135 µM
- GI50 (SK-OV-3 ovarian): 0.0386 µM
- TGI (SK-OV-3 ovarian): 0.352 µM
- GI50 (SF-295 CNS): 0.274 µM
- TGI (SF-295 CNS): 0.767 µM
- GI50 (NCI-H460 NSCLC): 0.184 µM
- TGI (NCI-H460 NSCLC): 0.424 µM
- GI50 (SK-MEL-28 melanoma): 0.0208 µM
- TGI (SK-MEL-28 melanoma): 0.048 µM
- GI50 (ACHN renal): 1.89 µM
- TGI (ACHN renal): 11.2 µM
- GI50 (TK-10 renal): 0.389 µM
- TGI (TK-10 renal): 14.7 µM
- GI50 (A549 NSCLC): 0.294 µM
- TGI (A549 NSCLC): 0.967 µM
- GI50 (LOX IMVI melanoma): 0.0256 µM
- TGI (LOX IMVI melanoma): 0.048 µM
- GI50 (IGROV1 ovarian): 0.0229 µM
- TGI (IGROV1 ovarian): 0.0695 µM
- GI50 (RPMI-8226 leukemia): 0.151 µM
- TGI (RPMI-8226 leukemia): 0.285 µM
- GI50 (UACC-62 melanoma): 0.0927 µM
- TGI (UACC-62 melanoma): 0.321 µM
- GI50 (KM12 colon): 0.0347 µM
- TGI (KM12 colon): 0.16 µM
- GI50 (HCC-2998 colon): 0.0178 µM
- TGI (HCC-2998 colon): 0.0381 µM
- GI50 (MCF7 breast): 0.0266 µM
- TGI (MCF7 breast): 1.29 µM
- GI50 (UO-31 renal): 2.19 µM
- TGI (UO-31 renal): 5.38 µM
- GI50 (MDA-MB-435 melanoma): 0.027 µM
- TGI (MDA-MB-435 melanoma): 0.0904 µM
- GI50 (OVCAR-3 ovarian): 0.018 µM
- TGI (OVCAR-3 ovarian): 0.0382 µM
- GI50 (HCT-15 colon): 3.05 µM
- TGI (HCT-15 colon): 9.82 µM
- GI50 (MOLT-4 leukemia): 0.0216 µM
- TGI (MOLT-4 leukemia): 0.0429 µM
- GI50 (SF-539 CNS): 0.0201 µM
- TGI (SF-539 CNS): 0.0436 µM
- GI50 (HOP-62 NSCLC): 0.159 µM
- TGI (HOP-62 NSCLC): 0.581 µM
- GI50 (MALME-3M melanoma): 0.0196 µM
- TGI (MALME-3M melanoma): 0.0394 µM
- GI50 (SNB-19 CNS): 0.0333 µM
- TGI (SNB-19 CNS): 1.42 µM
- GI50 ([…]-0 renal): 0.241 µM
- TGI (786-0 renal): 0.683 µM
- GI50 (SR leukemia): 0.0164 µM
- TGI (SR leukemia): 0.0303 µM
- GI50 (SW-620 colon): 0.0714 µM
- TGI (SW-620 colon): 0.41 µM
- GI50 (BT-549 breast): 0.0164 µM
- TGI (BT-549 breast): 0.0376 µM
- GI50 (UACC-257 melanoma): 0.0419 µM
- TGI (UACC-257 melanoma): 0.197 µM
- GI50 (MDA-MB-468 breast): 0.0177 µM
- TGI (MDA-MB-468 breast): 0.0337 µM
- GI50 (HCT-116 colon): 0.031 µM
- TGI (HCT-116 colon): 1.17 µM
- GI50 (NCI-H522 lung): 0.019 µM
- TGI (NCI-H522 lung): 0.0363 µM
- GI50 (NCI-H322M lung): 0.0274 µM
- TGI (NCI-H322M lung): 0.0678 µM
- GI50 (COLO 205 colon): 0.019 µM
- TGI (COLO 205 colon): 0.0429 µM
- GI50 (U251 glioblastoma): 0.0482 µM
- TGI (U251 glioblastoma): 0.399 µM
- GI50 (NCI-H23 lung): 0.0274 µM
- TGI (NCI-H23 lung): 0.117 µM
- GI50 (SF-268 CNS): 0.0205 µM
- TGI (SF-268 CNS): 0.0447 µM
- GI50 (K-562 leukemia): 0.0397 µM
- TGI (K-562 leukemia): 0.84 µM
- GI50 (OVCAR-8 ovarian): 0.149 µM
- TGI (OVCAR-8 ovarian): 0.398 µM
- GI50 (PC-3 prostate): 0.0463 µM
- TGI (PC-3 prostate): 0.371 µM
